Assay results as given in EP4667466A1, “PROTAC DEGRADERS OF MLLT1 AND/OR MLLT3” (priority 2024, dated 2025).

Biological target: T1, MLLT1 (Homo sapiens, UniProt Q03111)
T1 construct: endogenous in cells; host or cells: MV4-11 (ATCC CRL-9591)
T1 sequence (Q03111 1-559): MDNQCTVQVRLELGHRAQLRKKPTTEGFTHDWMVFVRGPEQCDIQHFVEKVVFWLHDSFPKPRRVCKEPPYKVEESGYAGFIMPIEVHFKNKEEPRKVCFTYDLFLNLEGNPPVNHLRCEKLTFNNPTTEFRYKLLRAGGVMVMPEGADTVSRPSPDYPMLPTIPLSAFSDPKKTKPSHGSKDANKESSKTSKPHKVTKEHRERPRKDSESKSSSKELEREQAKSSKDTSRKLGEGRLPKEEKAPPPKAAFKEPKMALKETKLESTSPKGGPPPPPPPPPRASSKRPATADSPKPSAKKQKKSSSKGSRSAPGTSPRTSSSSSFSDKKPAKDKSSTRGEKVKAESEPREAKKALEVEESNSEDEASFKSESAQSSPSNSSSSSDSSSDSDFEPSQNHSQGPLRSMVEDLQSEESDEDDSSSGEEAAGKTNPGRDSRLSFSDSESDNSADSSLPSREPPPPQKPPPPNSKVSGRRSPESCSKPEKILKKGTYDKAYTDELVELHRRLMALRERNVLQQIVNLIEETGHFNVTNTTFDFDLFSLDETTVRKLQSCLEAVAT
Test: MLLT1 degradation assay (JESS automated chemiluminescent detection) in MV4-11 cells
Type: cell-based
Conditions: 24h, with respect to DMSO control
Procedure: MLLT1 degradation efficacy of compounds was tested in an automated chemiluminescent detection system (JESS, Cat# 004-650). MV4-11 (#CRL-9591, ATCC) cells were seeded at a density of 1.2 million cells/well in a non-treated 6-well cell culture plate in 2.4 mL of complete medium (IMDM + 10% FBS + 1X Penicillin-Streptomycin). 10 mM DMSO stocks were prepared, and cells were treated with three concentrations of test compounds viz. 1000, 100 and 10 nM at a final DMSO concentration of 0.1% and incubated for 24h at 37°C, 5% CO2. Post incubation, cells were centrifuged, washed with HBSS and lysed in 70 uL of RIPA buffer supplemented with Protease inhibitors (sc-24948; Santa Cruz). Subsequently, protein estimation was done using BCA protein assay kit (23225; Pierce). 4 ug protein lysate (4 uL of 1ug/uL lysate) was loaded into each well of the JESS cartridge (SM-WO01; Bio-techne) and the JESS run was performed using 1:900 dilution of anti-human MLLT1 antibody (14893; Cell signaling technology) and 1:1200 dilution of anti-human GAPDH antibody (2118; Cell signaling technology) with anti-rabbit secondary detection module (DM-001; Bio-Techne). Post run, data were analysed using "Compass for SW" software for chemiluminescent detection. The peak area for each band was used for the calculation of MLLT1 degradation with respect to DMSO control. Data is shown as "MLLT1 % degradation". Category A: A ≥ 75% degradation Category B: 50% ≤ B < 75% degradation Category C: 25% ≤ C < 50% degradation Category D: D < 25% degradation Table 1

inhibition at 0.01 µM | inhibition at 0.1 µM | inhibition at 1 µM | Compound
≥ 75% | ≥ 75% | ≥ 75% | Cc1nn(CCCCCCCC=C(Cl)c2ccc3c(c2)n(C)c(=O)n3C2CCC(=O)NC2=O)c2cc(C(=O)Nc3cc4[nH]c([C@H]5CCCN5C)cc4cn3)ccc12 (mixture of isomers) [Example 40]
50 to 75% | ≥ 75% | ≥ 75% | Cc1nn(CCCCCCCCNc2cccc3c2C(=O)N(C2CCC(=O)NC2=O)C3=O)c2cc(C(=O)Nc3cc4[nH]c(C5CCCN5C)cc4cn3)ccc12 (racemic) [Example 2, rac-1-(8-{[2-(2,6-dioxopiperidin-3-yl)-1,3-dioxoisoindol-4-yl]amino}octyl)-3-methyl-N-[2-(1-methylpyrrolidin-2-yl)-1H-pyrrolo[3,2-c]pyridin-6-yl]indazole-6-carboxamide]
≥ 75% | ≥ 75% | ≥ 75% | Cc1nn(CCCCCCCC#Cc2cccc3c2CN(C2CCC(=O)NC2=O)C3=O)c2cc(C(=O)Nc3cc4[nH]c([C@H]5CC6(CC6)CN5C)cc4cn3)ccc12 (stereo in doubt) [Example 56, 1-(9-(2-(2,6-dioxopiperidin-3-yl)-1-oxoisoindolin-4-yl)non-8-yn-1-yl)-3-methyl-N-(2-((rel-R)-5-methyl-5-azaspiro[2.4]heptan-6-yl)-1H-pyrrolo[3,2-c]pyridin-6-yl)-1H-indazole-6-carboxamide]
50 to 75% | ≥ 75% | ≥ 75% | Cc1nn(CCCCCCCCNc2cccc3c2C(=O)N(C2CCC(=O)NC2=O)C3=O)c2cc(C(=O)Nc3cc4[nH]c([C@H]5CCCN5C)cc4cn3)ccc12 (stereo partly drawn) [Example 3, 1-(8-{[2-(2,6-dioxopiperidin-3-yl)-1,3-dioxoisoindol-4-yl]amino}octyl)-3-methyl-N-{2-[(2R)-1-methylpyrrolidin-2-yl]-1H-pyrrolo[3,2-c]pyridin-6-yl}indazole-6-carboxamide]
< 25% | < 25% | 50 to 75% | Cc1nn(CCCCCCCCNc2cccc3c2C(=O)N(C2CCC(=O)NC2=O)C3=O)c2cc(C(=O)Nc3cc4[nH]c([C@@H]5CCCN5C)cc4cn3)ccc12 (stereo partly drawn) [Example 4, 1-(8-{[2-(2,6-dioxopiperidin-3-yl)-1,3-dioxoisoindol-4-yl]amino}octyl)-3-methyl-N-{2-[(2S)-1-methylpyrrolidin-2-yl]-1H-pyrrolo [3,2-c]pyridin-6-yl}indazole-6-carboxamide]
50 to 75% | 50 to 75% | 25 to 50% | Cc1c2ccc(C(=O)Nc3cc4[nH]c([C@H]5CCCN5C)cc4cn3)cc2nn1CCCCCCCCNc1cccc2c1C(=O)N(C1CCC(=O)NC1=O)C2=O (stereo partly drawn) [Example 5, 2-(8-((2-(2,6-dioxopiperidin-3-yl)-1,3-dioxoisoindolin-4-yl)amino)octyl)-3-methyl-N-(2-((R)-1-methylpyrrolidin-2-yl)-1H-pyrrolo[3,2-c]pyridin-6-yl)-2H-indazole-6-carboxamide]
25 to 50% | 50 to 75% | ≥ 75% | CN1CCC[C@@H]1c1cc2cnc(NC(=O)c3ccc4c(c3)c(N3CCC(CN5CCN(c6cc7c(cc6F)C(=O)N(C6CCC(=O)NC6=O)C7=O)CC5)CC3)nn4C)cc2[nH]1 (stereo partly drawn) [Example 6, 3-[4-({4-[2-(2,6-dioxopiperidin-3-yl)-6-fluoro-1,3-dioxoisoindol-5-yl]piperazin-1-yl}methyl)piperidin-1-yl]-1-methyl-N-{2-[(2R)-1-methylpyrrolidin-2-yl]-1H-pyrrolo[3,2-c]pyridin-6-yl}indazole-5-carboxamide]
< 25% | 25 to 50% | ≥ 75% | Cc1c(OCCCCCCCCn2nc(C)c3ccc(C(=O)Nc4cc5[nH]c([C@H]6CCCN6C)cc5cn4)cc32)cccc1N1CCC(=O)NC1=O [Example 9, 1-{8-[3-(2,4-dioxo-1,3-diazinan-1-yl)-2-methylphenoxy]octyl}-3-methyl-N-{2-[(2R)-1-methylpyrrolidin-2-yl]-1H-pyrrolo[3,2-c]pyridin-6-yl}indazole-6-carboxamide]
25 to 50% | 25 to 50% | 25 to 50% | Cc1c(OCCCCCCn2nc(C)c3ccc(C(=O)Nc4cc5[nH]c([C@H]6CCCN6C)cc5cn4)cc32)cccc1N1CCC(=O)NC1=O [Example 10, 1-16-[3-(2,4-dioxo-1,3-diazinan-1-yl)-2-methylphenoxy]hexyll-3-methyl-N-{2-[(2R)-1-methylpyrrolidin-2-yl]-1H-pyrrolo [3,2-c]pyridin-6-yl}indazole-6-carboxamide]
50 to 75% | 50 to 75% | 50 to 75% | Cc1nn(CCCCCC#Cc2cccc3c2n(C)c(=O)n3C2CCC(=O)NC2=O)c2cc(C(=O)Nc3cc4[nH]c([C@H]5CCCN5C)cc4cn3)ccc12 (stereo partly drawn) [Example 11, 1-{7-[1-(2,6-dioxopiperidin-3-yl)-3-methyl-2-oxo-1,3-benzodiazol-4-yl]hept-6-yn-1-yl}-3-methyl-N-{2-[(2R)-1-methylpyrrolidin-2-yl]-1H-pyrrolo[3,2-c]pyridin-6-yl}indazole-6-carboxamide]
≥ 75% | ≥ 75% | ≥ 75% | Cc1nn(CCCCCCCCNc2cccc3c2C(=O)N(C2CCC(=O)NC2=O)C3=O)c2cc(C(=O)Nc3cc4[nH]c([C@H]5CCCN5C)c(Cl)c4cn3)ccc12 (stereo partly drawn) [Example 18, N-(3-chloro-2-((R)-1-methylpyrrolidin-2-yl)-1H-pyrrolo[3,2-c]pyridin-6-yl)-1-(8-((2-(2,6-dioxopiperidin-3-yl)-1,3-dioxoisoindolin-4-yl)amino)octyl)-3-methyl-1H-indazole-6-carboxamide]
25 to 50% | 25 to 50% | ≥ 75% | Cc1nn(CCCCN2CCN(c3ccc4c(c3)C(=O)N(C3CCC(=O)NC3=O)C4=O)CC2)c2cc(C(=O)Nc3cc4[nH]c([C@@H]5CCCN5C)cc4cn3)ccc12 (stereo partly drawn) [Example 20, 1-(4-{4-[2-(2,6-dioxopiperidin-3-yl)-1,3-dioxoisoindol-5-yl]piperazin-1-yl}butyl)-3-methyl-N-{2-[(2S)-1-methylpyrrolidin-2-yl]-1H-pyrrolo[3,2-c]pyridin-6-yl}indazole-6-carboxamide]
≥ 75% | ≥ 75% | ≥ 75% | Cc1nn(CCCCCN2CCN(c3cc4c(cc3F)C(=O)N(C3CCC(=O)NC3=O)C4=O)CC2)c2cc(C(=O)Nc3cc4[nH]c([C@H]5CCCN5C)cc4cn3)ccc12 (stereo partly drawn) [Example 23, 1-(5-(4-(2-(2,6-dioxopiperidin-3-yl)-6-fluoro-1,3-dioxoisoindolin-5-yl)piperazin-1-yl)pentyl)-3-methyl-N-(2-((R)-1-methylpyrrolidin-2-yl)-1H-pyrrolo[3,2-c]pyridin-6-yl)-1H-indazole-6-carboxamide]
– | 50 to 75% | ≥ 75% | Cc1nn(CCOCCN2CCN(c3cc4c(cc3F)C(=O)N(C3CCC(=O)NC3=O)C4=O)CC2)c2cc(C(=O)Nc3cc4[nH]c([C@H]5CCCN5C)cc4cn3)ccc12 (stereo partly drawn) [Example 24, 1-(2-(2-(4-(2-(2,6-dioxopiperidin-3-yl)-6-fluoro-1,3-dioxoisoindolin-5-yl)piperazin-1-yl)ethoxy)ethyl)-3-methyl-N-(2-((R)-1-methylpyrrolidin-2-yl)-1H-pyrrolo[3,2-c]pyridin-6-yl)-1H-indazole-6-carboxamide]
≥ 75% | ≥ 75% | ≥ 75% | Cc1nn(CCCC2CCN(c3cccc4c3C(=O)N(C3CCC(=O)NC3=O)C4=O)CC2)c2cc(C(=O)Nc3cc4[nH]c([C@H]5CCCN5C)cc4cn3)ccc12 (stereo partly drawn) [Example 27, 1-(3-(1-(2-(2,6-dioxopiperidin-3-yl)-1,3-dioxoisoindolin-4-yl)piperidin-4-yl)propyl)-3-methyl-N-(2-((R)-1-methylpyrrolidin-2-yl)-1H-pyrrolo[3,2-c]pyridin-6-yl)-1H-indazole-6-carboxamide]
